According to patent US20130072543A1, “Compounds and Compositions for Nucleic Acid Formulation and Delivery” (ARROWHEAD RESEARCH CORPORATION, priority 2011, published 2013):
Strand notation (5' to 3'): a small letter for the sugar, then the base; units joined by * are phosphorothioate-linked, units joined directly phosphodiester-linked; [ ] holds rarer units or linkages, { } end groups; capitals alone tell only the bases. d = 2'-deoxy (DNA); m = 2'-O-methyl; r = 2'-OH (RNA)

Test system: Kif11 mRNA
Experiment: In vivo administration of LNPs to mice, H&E histopathology of aberrant mitotic figures
Details: mouse bone marrow, 5 consecutive high power (400×) microscopic fields per sample
Protocol: In Vivo Administration. Selected LNPs were dosed IV via tail vein injection on three successive days and the indicated tissues (see FIG. 11-13) were harvested and fixed in 10% zinc-formalin overnight, processed, paraffin embedded, sectioned at 5 μm, and stained with hematoxylin and eosin for histopathology assessment. In vivo delivery and Kif11 knockdown was shown with an increase in aberrant mitotic figures as a surrogate for Kif11 mRNA loss in murine liver, spleen and bone marrow tissue. Mitotic figures refer to chromosome aggregation during mitosis.

For “LUC: control siRNA targeting Firefly Luciferase mRNA, 21 nucleotides, SEQ ID 3 and 4 (chain 1 mCmUmUrAmCrGmCmUrGrArGmUrAmCmUmUmCrGrAdT*dT; chain 2 rUrCrGrArArGmUrArCrUmCrArGrCrGmUrArArGdT*dT; listed as Photinus pyralis)”, the “Average no. of aberrant mitotic figures” value was 0.
